Experimental findings from USRE31181E, “Means and method for improving natural defenses against caries” (priority 1980, dated 1983) are described below.

Where a SMILES comes first, the peptide text is derived from it.

The assay deals with oral bacteria. In words: pH of glucose solution incubated with oral bacteria (salivary sediment) and test substance. Format: cell-based. To be noted: for pH rising to (pH rise after the drop) / pH drop to (lowest pH reached): salivary sediment 16.7% (v/v), peptide 3.3 mM; for pH rising to (pH rise after the drop) / pH drop to (lowest pH reached) / pH: glucose 2.8 mM; for pH rising to (pH rise after the drop): measured through the fourth hour; for pH drop to (lowest pH reached): pH starts slightly above 7; for pH: substance 3.3 mM final, 37° C. As for the experimental part: Experiments were performed in vitro using supernatant saliva. The saliva was obtained from random donors whose salivary secretions were paraffin block stimulated. The saliva donations were pooled before and after sediment removal.
Four sets of three 10×75 mm test tubes were provided with 0.2 ml of 8.4 mM (millimolar) of aqueous glucose solution. Set I was provided with 0.2 ml of pooled supernatant saliva. Set II was provided with 0.2 ml of 9.9 mM of the peptide glycine-glycine-arginine. Set III was provided with 0.2 ml of 9.9 mM arginine. Set IV was provided with 0.2 ml of distilled water. Sequentially 0.2 ml of a 50:50 aqueous suspension of oral bacteria was added to each test tube. The concentration of the peptide in the combined composition was 3.3 mM. The prepared test tubes were kept at 37° C. in a water bath. pH readings were taken at 0 time when the bacteria were added and at 15, 30, 45, 60, 90, 120, 180 and 240 minutes.
The tests were carried out under the same conditions as Sets I-IV. The salivary sediment was present in an amount of 16.7% (v/v), glucose 2.8 mM and the peptide 3.3 mM in the final composition.
Duplicate runs without peptide were run parallel to the others as a double check. […] Measurement continues through the fourth hour.

Where [1] appears, read: time 0 minutes (bacteria added).

As to `N=C(N)NCCC[C@H](N)C(=O)O.NCC(=O)O.NCC(=O)O` [Gly--Gly--Arg, glycine-glycine-arginine], the “pH rising to (pH rise after the drop)” value was 7.5 and the “pH drop to (lowest pH reached)” value came to 5.5. Besides, under setting [1], the pH is 7.4. Besides, the pH (time 15 minutes) was determined as 6.8. The molecule also had a pH (time 30 minutes) of 6.6. For the same molecule, the pH (time 45 minutes) is reported as 6.4. The pH (time 60 minutes) is 6.6. The same molecule displayed a pH (time 90 minutes) of 6.6. For the same molecule, the pH (time 120 minutes) was determined as 6.7. Further, under “time 180 minutes”, the pH is reported as 7.2. For the same molecule, for the setting “time 240 minutes”, the pH came to 7.6.
In the case of `N=C(N)NCCC[C@H](NC(=O)[C@H](CCCCN)NC(=O)CNC(=O)CN)C(=O)O` [Gly--Gly--Lys--Arg, H-glycine-glycine-lysine-arginine-OH] (H-GGKR-OH), the “pH rising to (pH rise after the drop)” value was 8.4 and the “pH drop to (lowest pH reached)” value stood at 6.4. Besides, where the note is “synthesized peptide”, the “effectiveness as pH rise factor” value was “proven effective”.
Take `N=C(N)NCCC[C@H](N)C(=O)O` [Set III, arginine, reference compound]: the pH reads like this: under setting [1], 7.3; (time 15 minutes) 5.8; (time 30 minutes) 5.4; (time 45 minutes) 5.2; (time 60 minutes) 4.9; (time 90 minutes) 5.0. The pH reads like this: (time 120 minutes) 5.0; (time 180 minutes) 5.3; (time 240 minutes) 5.8.
